{"source": "ChEMBL document CHEMBL1201862", "about": "“PubChem BioAssay data set” (2004)", "assay_in_all_cases": "growth of human tumour cells (NCI), 48 h", "key": {"MDA-N": {"tested_on": "MDA-N"}, "MDA-MB-231": {"tested_on": "MDA-MB-231"}, "MCF7": {"tested_on": "MCF7"}, "TK-10": {"tested_on": "TK-10"}, "SR": {"tested_on": "SR"}, "DU-145": {"tested_on": "DU-145"}, "NCI/ADR-RES": {"tested_on": "NCI/ADR-RES"}, "PC-3": {"tested_on": "PC-3"}, "A549": {"tested_on": "A549"}, "Hs-578T": {"tested_on": "Hs-578T"}, "Malme-3M": {"tested_on": "Malme-3M"}, "DMS-114": {"tested_on": "DMS-114"}, "DLD-1": {"tested_on": "DLD-1"}, "KM-20L2": {"tested_on": "KM-20L2"}, "SF-539": {"tested_on": "SF-539"}, "M19-MEL": {"tested_on": "M19-MEL"}, "KM12": {"tested_on": "KM12"}, "A498": {"tested_on": "A498"}, "SNB-78": {"tested_on": "SNB-78"}, "LXFL 529": {"tested_on": "LXFL 529"}}, "note": "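The compound was tested at five concentrations on cells cultured in 96-well plates, with a 48-hour exposure period. Abbreviation: GI50, concentration required for 50% inhibition of growth.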 Activity calls are given as the source filed them. Cut-off read from the data, not from the text of the source: active = GI50 up to about 1.1 µM and inactive = higher.", "data": [{"compound": "CCP(=S)(CC)CCl", "values": [{"measurement": "GI50", "setting": "MDA-N", "result": "> 100 µM (inactive)"}, {"measurement": "GI50", "setting": "MDA-MB-231", "result": "> 100 µM (inactive)"}, {"measurement": "GI50", "setting": "MCF7", "result": "> 100 µM (inactive)"}, {"measurement": "GI50", "setting": "TK-10", "result": "> 100 µM (inactive)"}, {"measurement": "GI50", "setting": "SR", "result": "> 100 µM (inactive)"}, {"measurement": "GI50", "setting": "DU-145", "result": "> 100 µM (inactive)"}, {"measurement": "GI50", "setting": "NCI/ADR-RES", "result": "> 100 µM (inactive)"}, {"measurement": "GI50", "setting": "PC-3", "result": "> 100 µM (inactive)"}, {"measurement": "GI50", "setting": "A549", "result": "> 100 µM (inactive)"}, {"measurement": "GI50", "setting": "Hs-578T", "result": "> 100 µM (inactive)"}]}, {"compound": "CN(C)CCNC(=O)c1cccc2nc(-c3ccccc3)oc12", "values": [{"measurement": "GI50", "setting": "Malme-3M", "result": "23.9 µM (inactive)"}, {"measurement": "GI50", "setting": "MCF7", "result": "14.7 µM (inactive)"}, {"measurement": "GI50", "setting": "DMS-114", "result": "47.1 µM (inactive)"}, {"measurement": "GI50", "setting": "DLD-1", "result": "31.9 µM (inactive)"}, {"measurement": "GI50", "setting": "KM-20L2", "result": "28.8 µM (inactive)"}, {"measurement": "GI50", "setting": "SF-539", "result": "49.9 µM (inactive)"}, {"measurement": "GI50", "setting": "M19-MEL", "result": "33 µM (inactive)"}, {"measurement": "GI50", "setting": "KM12", "result": "53.5 µM (inactive)"}, {"measurement": "GI50", "setting": "A498", "result": "27.7 µM (inactive)"}, {"measurement": "GI50", "setting": "SNB-78", "result": "> 72.6 µM (inactive)"}, {"measurement": "GI50", "setting": "NCI/ADR-RES", "result": "42.9 µM (inactive)"}, {"measurement": "GI50", "setting": "A549", "result": "42.6 µM (inactive)"}]}, {"compound": "CCOC(=O)C1=NN(c2ccccc2)C2=CC(C)=NN(C)C(=S)N21", "values": [{"measurement": "GI50", "setting": "MDA-N", "result": "> 100 µM (inactive)"}, {"measurement": "GI50", "setting": "MDA-MB-231", "result": "> 100 µM (inactive)"}, {"measurement": "GI50", "setting": "MCF7", "result": "> 100 µM (inactive)"}, {"measurement": "GI50", "setting": "TK-10", "result": "> 100 µM (inactive)"}, {"measurement": "GI50", "setting": "SR", "result": "> 100 µM (inactive)"}, {"measurement": "GI50", "setting": "SF-539", "result": "> 100 µM (inactive)"}, {"measurement": "GI50", "setting": "KM12", "result": "> 100 µM (inactive)"}, {"measurement": "GI50", "setting": "DU-145", "result": "> 100 µM (inactive)"}, {"measurement": "GI50", "setting": "NCI/ADR-RES", "result": "> 100 µM (inactive)"}, {"measurement": "GI50", "setting": "PC-3", "result": "> 100 µM (inactive)"}, {"measurement": "GI50", "setting": "A549", "result": "> 100 µM (inactive)"}, {"measurement": "GI50", "setting": "Hs-578T", "result": "> 100 µM (inactive)"}]}, {"compound": "CC(=O)OC1CC[C@@]2(C)C(=CC[C@@H]3[C@@H]2CC[C@]2(C)Nc4nn(S(C)(=O)=O)cc4C[C@@H]32)C1", "note": "(stereo not given in full)", "values": [{"measurement": "GI50", "setting": "Malme-3M", "result": "27.3 µM (inactive)"}, {"measurement": "GI50", "setting": "MDA-N", "result": "29 µM (inactive)"}, {"measurement": "GI50", "setting": "MDA-MB-231", "result": "31 µM (inactive)"}, {"measurement": "GI50", "setting": "MCF7", "result": "16.6 µM (inactive)"}, {"measurement": "GI50", "setting": "SR", "result": "36.4 µM (inactive)"}, {"measurement": "GI50", "setting": "KM12", "result": "31.8 µM (inactive)"}, {"measurement": "GI50", "setting": "A498", "result": "> 100 µM (inactive)"}, {"measurement": "GI50", "setting": "DU-145", "result": "35.9 µM (inactive)"}, {"measurement": "GI50", "setting": "NCI/ADR-RES", "result": "29.9 µM (inactive)"}, {"measurement": "GI50", "setting": "PC-3", "result": "28.2 µM (inactive)"}, {"measurement": "GI50", "setting": "Hs-578T", "result": "67 µM (inactive)"}]}, {"compound": "CN1CN(C(=O)N2CN(C)C(=O)N(C)C2)CN(C)C1=O", "values": [{"measurement": "GI50", "setting": "LXFL 529", "result": "> 100 µM (inactive)"}, {"measurement": "GI50", "setting": "Malme-3M", "result": "> 100 µM (inactive)"}, {"measurement": "GI50", "setting": "DMS-114", "result": "> 100 µM (inactive)"}, {"measurement": "GI50", "setting": "DLD-1", "result": "> 100 µM (inactive)"}, {"measurement": "GI50", "setting": "KM-20L2", "result": "> 100 µM (inactive)"}, {"measurement": "GI50", "setting": "SF-539", "result": "> 100 µM (inactive)"}, {"measurement": "GI50", "setting": "M19-MEL", "result": "> 100 µM (inactive)"}, {"measurement": "GI50", "setting": "KM12", "result": "> 100 µM (inactive)"}, {"measurement": "GI50", "setting": "A498", "result": "> 100 µM (inactive)"}, {"measurement": "GI50", "setting": "SNB-78", "result": "> 100 µM (inactive)"}, {"measurement": "GI50", "setting": "A549", "result": "> 100 µM (inactive)"}]}, {"compound": "CC(=O)OC1CC2(O)C(CCC3(C)C(c4ccc(=O)oc4)CCC32O)C2(C)CCC(O)C=C12", "note": "(stereo not given)", "values": [{"measurement": "GI50", "setting": "MCF7", "result": "0.0375 µM (active)"}, {"measurement": "GI50", "setting": "DMS-114", "result": "0.00116 µM (active)"}, {"measurement": "GI50", "setting": "DLD-1", "result": "0.0375 µM (active)"}, {"measurement": "GI50", "setting": "KM-20L2", "result": "0.0219 µM (active)"}, {"measurement": "GI50", "setting": "SF-539", "result": "0.00775 µM (active)"}, {"measurement": "GI50", "setting": "M19-MEL", "result": "0.0234 µM (active)"}, {"measurement": "GI50", "setting": "A498", "result": "0.0428 µM (active)"}, {"measurement": "GI50", "setting": "SNB-78", "result": "0.00989 µM (active)"}, {"measurement": "GI50", "setting": "NCI/ADR-RES", "result": "0.0125 µM (active)"}]}, {"compound": "COc1ccc(C(=O)Cc2cc(OC)ccc2OC)cc1", "values": [{"measurement": "GI50", "setting": "LXFL 529", "result": "> 100 µM (inactive)"}, {"measurement": "GI50", "setting": "Malme-3M", "result": "> 100 µM (inactive)"}, {"measurement": "GI50", "setting": "TK-10", "result": "> 100 µM (inactive)"}, {"measurement": "GI50", "setting": "DMS-114", "result": "66.8 µM (inactive)"}, {"measurement": "GI50", "setting": "SR", "result": "> 100 µM (inactive)"}, {"measurement": "GI50", "setting": "DLD-1", "result": "> 100 µM (inactive)"}, {"measurement": "GI50", "setting": "KM-20L2", "result": "> 100 µM (inactive)"}, {"measurement": "GI50", "setting": "SF-539", "result": "> 100 µM (inactive)"}, {"measurement": "GI50", "setting": "M19-MEL", "result": "> 100 µM (inactive)"}, {"measurement": "GI50", "setting": "A498", "result": "39.2 µM (inactive)"}, {"measurement": "GI50", "setting": "SNB-78", "result": "42.4 µM (inactive)"}, {"measurement": "GI50", "setting": "A549", "result": "> 100 µM (inactive)"}]}, {"compound": "O=C(O)C12CC3CC(C1)C2C=C3P(=O)(O)O", "note": "(stereo not given)", "values": [{"measurement": "GI50", "setting": "LXFL 529", "result": "> 100 µM (inactive)"}, {"measurement": "GI50", "setting": "Malme-3M", "result": "> 100 µM (inactive)"}, {"measurement": "GI50", "setting": "TK-10", "result": "> 100 µM (inactive)"}, {"measurement": "GI50", "setting": "DMS-114", "result": "> 100 µM (inactive)"}, {"measurement": "GI50", "setting": "DLD-1", "result": "> 100 µM (inactive)"}, {"measurement": "GI50", "setting": "KM-20L2", "result": "> 100 µM (inactive)"}, {"measurement": "GI50", "setting": "M19-MEL", "result": "> 100 µM (inactive)"}, {"measurement": "GI50", "setting": "KM12", "result": "> 100 µM (inactive)"}]}]}
